The term IC50 denotes the concentration that gives 50% inhibition.

Data on eleven compounds can be found in patent publication US20260347372A1, “SMALL MOLECULE INHIBITORS OF KRAS G12D MUTANT” (MERCK SHARP & DOHME LLC, priority 2023, published 2026).

Assay [1] deals with T1, AsPC-1 cells (Homo sapiens, UniProt P01116, G12D).
T1 construct: p-ERK/total ERK AlphaSureFire read-out
In words: Cellular phospho-ERK assay, AsPC-1 cells (KRAS G12D). The settings on record: 2 hours, read-out: AsPC1 pERK IC50. Format: cell-based. How it is done:
Procedure for Cellular Phospho-ERK Assay in KRAS Wild Type and Mutant (G12D, G12V) Cell Lines
PANC08.13 cells (ATCC® CRL-2551™), containing homozygous KRAS-G12D activating mutation, were cultured in growth medium made of RPMI1640-GlutaMAX™-I (ThermoFisher Scientific 61870) containing 15% heat inactivated fetal bovine serum (ThermoFisher Scientific 10091148)). AsPC-1 cells (ATCC® CRL-1682™), containing homozygous KRAS-G12D activating mutation, were cultured in T150 flask in growth medium (RPMI medium 1640-GlutaMAX™-I (ThermoFisher Scientific 61870) containing 10% fetal bovine serum (ThermoFisher Scientific 10091148)).
Cells for the assay were harvested in growth medium after TrypLE (ThermoFisher scientific 12604021) digestion and were seeded in a 384-well collagen coated cell culture plate (Corning 356702) at a density of 10,000-15,000 cells/20 μL/well, and incubated at 37° C., 5% CO2 overnight. The compound (with 10 mM stock concentration) dose-response titrations were prepared [30 μM final ERK detection assay concentration and 1:3 dilutions, 10-point dose response] and appropriate amounts (270 nL) of test compounds were dispensed in a 384-well intermediate plate using an Echo 550 liquid handler. 30 μL/well of RPMI medium 1640-GlutaMAX™-I was added to the intermediate plate and the contents of the intermediate plate (10 μL/well) were then transferred to the 384-well collagen coated cell culture plate, which was incubated at 37° C., 5% CO2 for 2 hours. After removal of medium from the collagen coated cell culture plate, cells were lysed in lysis buffer from Alpha SureFire® Ultra™ Multiplex p-ERK and total ERK assay kit (PerkinElmer MPSU-PTERK) containing Halt™ Protease and Phosphatase inhibitor cocktail (ThermoFisher Scientific 78446) at room temperature with constant shaking at 300 rpm for 30 minutes. The cell lysates were then transferred to an OptiPlate-384 plate (PerkinElmer 6005620), and the phosphorylation of ERK (p-ERK) and total ERK levels were detected by Alpha SureFire® Ultra™ Multiplex p-EEK kit and total ERK assay kit (PerkinElmer MPSU-PTERK) following the manufacturer's protocol. Assay plates were read on a EnVision Multimode Plate Reader (PerkinElmer), and the ratio of p-ERK vs. total ERK in each well was used as the final readout. Dose response curves were analyzed using a 4-parameter logistic model to calculate IC50 values using Spotfire software.

The target in assay [2] is KRAS G12D (Homo sapiens, UniProt P01116, G12D). In words: SOS-catalyzed nucleotide exchange assay, KRAS G12D (Procedure A). Format: biochemical. The settings on record: guanine nucleotide exchange (GNE). An excerpt: (§1) Procedure for SOS-Catalyzed Nucleotide Exchange Assay for KRAS-WT, G12C/D/V, G13D, HRAS, and NRAS (Procedure A)
Sequence of KRAS G12D (P01116 with tags, fused parts or gaps isoform P01116-2 G12D): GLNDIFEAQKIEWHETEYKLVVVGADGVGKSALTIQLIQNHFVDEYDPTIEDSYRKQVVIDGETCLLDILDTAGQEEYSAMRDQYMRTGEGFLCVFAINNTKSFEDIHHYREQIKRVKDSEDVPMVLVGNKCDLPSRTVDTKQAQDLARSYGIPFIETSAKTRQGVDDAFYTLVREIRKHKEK
(§2) Recombinant KRAS-G12C protein used in this assay has an additional triple mutation (C51S/C80L/C118S). Whereas KRAS-WT, G12D/V, G13D, HRAS and NRAS are in context of their WT protein sequence background. Specifically, the SOS-catalyzed nucleotide exchange assay utilizes a preformed TR-FRET complex containing a specific biotinylated RAS protein (KRAS-WT, G12C/V/D, G13D, HRAS, NRAS; described above) with Bodipy-GDP, and Terbium-streptavidin. Compounds are preincubated with this complex for 60 minutes. Subsequently, recombinant human SOS protein and unlabeled GTP are added to initiate the exchange reaction. Small molecule inhibitors stabilize the Bodipy-GDP complex whereas the untreated protein rapidly exchanges Bodipy-GDP for unlabeled GTP resulting in reduced TR-FRET signal.
(§3) To assemble the preformed TR-FRET complexes, each biotinylated RAS protein is diluted to 2 μM in an EDTA Buffer (20 mM HEPES pH 7.5, 50 mM sodium chloride, 10 mM EDTA, and 0.01% Tween) and incubated at room temperature for one hour. This mixture is then further diluted to 90 nM in an Assay Buffer (20 mM HEPES pH 7.5, 150 mM sodium chloride, 10 mM magnesium chloride, and 0.005% Tween) containing 15 nM of Terbium-Streptavidin (Invitrogen, catalog #PV3577) and 900 nM of Bodipy-GDP (Invitrogen, catalog #G22360) and incubated at room temperature for six hours. It should be noted that this preformed TR-FRET complex for each of the RAS protein were made ahead of time, aliquoted and stored at −80° C. until the day of the experiment.
(§4) Each test compound (10 mM stock in DMSO) is diluted in DMSO to make a final-10-point, 3-fold dilution and is acoustically dispensed into a 384-well assay plate (Corning, catalog #3820) using an Echo 550 (Labcyte). Each well of the assay plate receives 3 μL of a specific 3×RAS preformed TR-FRET complex and 3 μL of Assay Buffer and is incubated at room temperature for 60 minutes (preincubation time). Each well then receives 3 μL of 3× recombinant human SOS protein and GTP (Sigma, G8877) in Assay Buffer and is incubated at room temperature for 30 minutes (G13D), 60 minutes (KRAS WT/G12C/D, H/NRAS) or 90 minutes for G12V. The final reaction in each well of 9 μL consists of 3 mM GTP, specific Ras and SOS proteins in the following concentrations: KRAS-G12C/SOS=3 nM/40 nM, KRAS-WT and G12D/SOS=1 nM/40 nM, KRAS-G12V/SOS=1.25 nM/160 nM, KRAS-G13D/SOS=1.25 nM/0 nM, HRAS and NRAS=1.25 nM/40 nM.
(§5) The time-resolved fluorescence resonance energy transfer (TR-FRET) signal is measured on an Envision (PerkinElmer) plate reader: Excitation filter=340 nm; emission1=495 nm; emission2=520 nm; dichroic mirror=D400/D505; delay time=[…]. The signal of each well is determined as the ratio of the emission at 520 nm to that at 495 nm. Percent effect of each well is determined after normalization to control wells containing DMSO (no effect) or a saturating concentration of inhibitor (max effect). The apparent effect as a function of compound concentration is fit to a four-parameter logistic equation.
(§6) For Example No. 14, nucleotide exchange assays for KRAS G12D, WT, G12C, and G12V were performed according to Procedure B. All the other compounds were tested according to Procedure A.

Assay [3] addresses KRAS G12V (Homo sapiens, UniProt P01116, G12V). As to the kind of experiment: SOS-catalyzed nucleotide exchange assay, KRAS G12V (Procedure A). Format: biochemical. The note with it: GNE.
Description: as §1, §2, §3, §4, §5, §6

Assay [4] deals with KRAS WT (Homo sapiens, UniProt P01116). In words: SOS-catalyzed nucleotide exchange assay, KRAS WT (Procedure A). The assay is classed as biochemical. The settings on record: GNE.
Sequence of KRAS WT (P01116 with tags, fused parts or gaps isoform P01116-2): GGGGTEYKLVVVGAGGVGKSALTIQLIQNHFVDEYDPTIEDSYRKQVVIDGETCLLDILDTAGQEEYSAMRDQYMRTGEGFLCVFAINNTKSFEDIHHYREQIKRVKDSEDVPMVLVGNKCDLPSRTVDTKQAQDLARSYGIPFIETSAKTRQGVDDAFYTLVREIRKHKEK
Description: as §1, §2, §3, §4, §5, §6

T1 sequence (P01116 1-188 isoform P01116-2 G12D): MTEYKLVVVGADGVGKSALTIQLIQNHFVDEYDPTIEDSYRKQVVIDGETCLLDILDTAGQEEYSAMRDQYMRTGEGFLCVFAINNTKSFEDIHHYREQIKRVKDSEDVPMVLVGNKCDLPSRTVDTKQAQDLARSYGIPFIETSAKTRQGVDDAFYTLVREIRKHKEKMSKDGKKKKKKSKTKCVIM
Sequence of KRAS G12V (P01116 with tags, fused parts or gaps isoform P01116-2 G12V): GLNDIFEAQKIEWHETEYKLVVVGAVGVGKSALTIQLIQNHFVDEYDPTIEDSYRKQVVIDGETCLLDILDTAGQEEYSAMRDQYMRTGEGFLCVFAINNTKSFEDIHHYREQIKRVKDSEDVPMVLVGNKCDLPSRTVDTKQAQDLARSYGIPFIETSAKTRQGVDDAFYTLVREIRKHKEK

For the compound `C#Cc1c(F)ccc2cc3[nH]ncc3c(-c3nccc4c3sc3nc(OC[C@]5(CN6CCN(C(C)=O)CC6)CC5(F)F)nc(N5C[C@H]6CC[C@@H](C5)N6)c34)c12` [Ex-102, 1-(4-(((1R)-1-(((4-((1R,5S)-3,8-diazabicyclo[3.2.1]octan-3-yl)-8-(5-ethynyl-6-fluoro-1H-benzo[f]indazol-4-yl)pyrido [4′,3′:4,5]thie-no[2,3-d]pyrimidin-2-yl)oxy)methyl)-2,2-difluorocyclopropyl)meth-yl)piperazin-1-yl)ethan-1-one], the IC50 in assay [1] is 2.77 µM; in assay [2] it was 0.0123 µM; in assay [3] it was more than 11.1 µM; in assay [4], more than 11.1 µM.
Consider `CCOC1(COc2nc(N3C[C@H]4CC[C@@H](C3)N4)c3c(n2)sc2c(-c4c(C(F)(F)F)c(C)cc5[nH]ncc45)nccc23)CCOC1` (stereo partly drawn) [Ex-42, 4-((1R,5S)-3,8-diazabicyclo[3.2.1]octan-3-yl)-2-((3-ethoxytetrahydrofuran-3-yl)methoxy)-8-(6-methyl-5-(trifluoromethyl)-1H-indazol-4-yl)pyrido[4′,3′:4,5]thieno[2,3-d]pyrimidine], for which the results for the IC50 in assay [1] and in assay [2] were 6.52 µM and 3.1 µM, respectively.
`COC1(COc2nc(N3C[C@H]4CC[C@@H](C3)N4)c3c(n2)sc2c(-c4c(C(F)(F)F)c(C)cc5[nH]ncc45)nccc23)CCOC1` (stereo partly drawn) [Ex-44, 4-((1R,5S)-3,8-diazabicyclo[3.2.1]octan-3-yl)-2-((3-methoxytetrahydrofuran-3-yl)methoxy)-8-(6-methyl-5-(trifluoromethyl)-1H-indazol-4-yl)pyrido[4′,3′:4,5]thieno[2,3-d]pyrimidine]: the IC50 in assay [1] worked out at 4.67 µM; in assay [2], 2.64 µM.
On the same counts, the results for `Cc1cc2[nH]ncc2c(-c2nccc3c2sc2nc(OCC4(C)CCCO4)nc(N4C[C@H]5CC[C@@H](C4)N5)c23)c1C(F)(F)F` (stereo partly drawn) [Ex-46, 4-((1R,5S)-3,8-diazabicyclo[3.2.1]octan-3-yl)-8-(6-methy1-5-(trifluoromethyl)-1H-indazol-4-yl)-2-((2-methyltetrahydrofuran-2-yl)methoxy)pyrido[4′,3′:4,5]thi-eno[2,3-d]pyrimidine] are 12.6 µM and 2.81 µM.
For `Cc1cc2[nH]ncc2c(-c2nccc3c2sc2nc(OCCC4CCS(=O)(=O)CC4)nc(N4C[C@H]5CC[C@@H](C4)N5)c23)c1C(F)(F)F` [Ex-41, 4-(2-((4-((1R,5S)-3,8-diazabicyclo[3.2.1]octan-3-yl)-8-(6-methyl-5-(trifluoromethyl)-1H-indazol-4-yl)pyrido[4′,3′:4,5]thieno[2,3-d]pyrimidin-2-yl)oxy)ethyl)tetrahydro-2H-thiopyran 1,1-dioxide], the IC50 was more than 30 µM in assay [1] and 4.64 µM in assay [2].
`Cc1cc2[nH]ncc2c(-c2nccc3c2sc2nc(OCC4COC(C)(C)CO4)nc(N4C[C@H]5CC[C@@H](C4)N5)c23)c1C(F)(F)F` (stereo partly drawn) [Ex-48, 4-((1R,5S)-3,8-diazabicyclo[3.2.1]octan-3-yl)-2-((5,5-dimethy1-1,4-dioxan-2-yl)methoxy)-8-(6-methy1-5-(trifluoromethyl)-1H-indazol-4-yl)pyrido[4′,3′:4,5]thieno[2,3-d]pyrimidine]: the results for the IC50 in assay [1] and in assay [2] were 14.9 µM and 3.35 µM, respectively.
As for `Cc1cc2[nH]ncc2c(-c2nccc3c2sc2nc(OCC45COC(C4)C5)nc(N4C[C@H]5CC[C@@H](C4)N5)c23)c1C(F)(F)F` [Ex-43, 2-((2-oxabicyclo[2.1.1]hexan-4-yl)methoxy)-4-((1R,5S)-3,8-diazabicyclo[3.2.1]octan-3-yl)-8-(6-methyl-5-(trifluoromethyl)-1H-indazol-4-yl)pyrido[4′,3′:4,5]thieno[2,3-d]pyrimidine], the IC50 in assay [1] turned out to be 6.83 µM; in assay [2], 2.18 µM.
With `Cc1cc2[nH]ncc2c(-c2nccc3c2sc2nc(OCC4CCCN(S(C)(=O)=O)C4)nc(N4C[C@H]5CC[C@@H](C4)N5)c23)c1C(F)(F)F` (stereo partly drawn) [Ex-50, 4-((1R,5S)-3,8-diazabicyclo[3.2.1]octan-3-yl)-8-(6-methyl-5-(trifluoromethyl)-1H-indazol-4-yl)-2-((1-(methylsulfonyl)piperidin-3-yl)methoxy)pyrido[4′,3′:4,5]thi-eno[2,3-d]pyrimidine], the IC50 was more than 30 µM in assay [1] and 2.38 µM in assay [2].
Regarding `Cc1cc2[nH]ncc2c(-c2nccc3c2sc2nc(OC[C@H]4C[C@H](C#N)C4)nc(N4C[C@H]5CC[C@@H](C4)N5)c23)c1C(F)(F)F` [Ex-45, (1R,3r)-3-(((4-((1R,5S)-3,8-diazabicyclo[3.2.1]octan-3-yl)-8-(6-methyl-5-(trifluoromethyl)-1H-indazol-4-yl)pyrido[4′,3′:4,5]thieno[2,3-d]pyrimidin-2-yl)oxy)methyl)cyclobutane-1-carbonitrile], the IC50 turned out to be 4.87 µM in assay [1] and 3.01 µM in assay [2].
For `Cc1cc2[nH]ncc2c(-c2nccc3c2sc2nc(OCC4(C#N)CCOC4)nc(N4C[C@H]5CC[C@@H](C4)N5)c23)c1C(F)(F)F` (stereo partly drawn) [Ex-49, 3-(((4-((1R,5S)-3,8-diazabicyclo[3.2.1]octan-3-yl)-8-(6-methyl-5-(trifluoromethyl)-1H-indazol-4-yl)pyrido[4′,3′:4,5]thieno[2,3-d]pyrimidin-2-yl)oxy)methyl)tetrahydrofuran-3-carbonitrile], the IC50 in assay [1] is 5.98 µM; in assay [2] it was 1.46 µM.
Taken in the same sequence, the figures for `Cc1cc2[nH]ncc2c(-c2nccc3c2sc2nc(OC[C@H]4CCCO4)nc(N4C[C@H]5CC[C@@H](C4)N5)c23)c1C(F)(F)F` [Ex-47, 4-((1R,5S)-3,8-diazabicyclo[3.2.1]octan-3-yl)-8-(6-methyl-5-(trifluoromethyl)-1H-indazol-4-yl)-2-(((R)-tetrahydrofuran-2-yl)methoxy)pyrido[4′,3′:4,5]thi-eno[2,3-d]pyrimidine] were 11.3 µM and 3.13 µM.
